Where a name gives a salt, the structure may show the parent alone.
Experiments:
Format in all cases: biochemical
[1] = target: T1, thrombin (Homo sapiens, UniProt P00734); test: inhibition of the amidolytic activity of thrombin (chromogenic substrate H-D-Phe-Pip-Arg-paranitroaniline); conditions: substrate 10 or 50 μM; thrombin 0.5 nM final conc.; pH 7.8; room temperature
Procedure: The measurements were carried out on microtitre plates at room temperature. For this, in each well of the plate […] of buffer (50 mM Tris, 100 mM NaCl, 0.1% polyethylene glycol; pH 7.8) were mixed with […] of the inhibitor dissolved in DMSO and diluted in the buffer and […] of human thrombin (0.5 nM final conc.). After incubation for 10 minutes the reaction was started by the addition of the chromogenic substrate H-D-Phe-Pip-Arg-paranitroaniline (10 or 50 μM final concentration), in which Pip represents the characterizing group 2-piperidylenecarbonyl of the α-aminoacid H-Pip-OH, which is (S)-piperidine-2-carboxylic acid (or L-homoproline). The hydrolysis of the substrate was followed spectrophotometrically on a kinetic microtitre plate reader for 5 minutes.

[2] = target: Factor Xa (Homo sapiens, UniProt P00742); test: inhibition of the amidolytic activity of Factor Xa (chromogenic substrate Bz-Ile-Glu-Gly-Arg-paranitroaniline); conditions: substrate 167 μM final concentration
Factor Xa, sequence (P00742 235-488 limits assumed): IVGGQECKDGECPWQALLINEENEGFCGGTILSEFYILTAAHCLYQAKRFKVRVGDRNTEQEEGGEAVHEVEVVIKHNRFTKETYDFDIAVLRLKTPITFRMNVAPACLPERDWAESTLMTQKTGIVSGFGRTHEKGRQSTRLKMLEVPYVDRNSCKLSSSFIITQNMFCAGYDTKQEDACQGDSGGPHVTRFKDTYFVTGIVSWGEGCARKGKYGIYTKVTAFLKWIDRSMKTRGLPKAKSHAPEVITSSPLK
Factor Xa, sequence (P00742 41-179 partner limits assumed): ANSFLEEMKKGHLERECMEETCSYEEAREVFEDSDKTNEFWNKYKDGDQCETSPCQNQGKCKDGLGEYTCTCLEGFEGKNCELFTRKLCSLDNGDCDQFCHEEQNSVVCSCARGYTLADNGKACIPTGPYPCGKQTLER

[3] = target: T1, thrombin; test: thrombin test of crude products (chromogenic substrate S-2238, 405 nm); conditions: crude product
Procedure: 5 g (1.5 mmol) of Fmoc-TGR resin according to H. Rink Tetrahedron Lett. 28, 3787 (1987) were shaken for 30 minutes. with a 20% solution of piperidine in DMF. Subsequently, the resin was washed with DMF. 1.19 g (3 mmol) of Fmoc-arginine, 950 mg (6 mmol) of 1-hydroxy-benzotriazole (HOBT--containing about 20% water), 570 mg of diisopropylcarbodiimide and DMF were added and the mixture was shaken for 1 hour. The resin was washed with DMF and shaken for 30 minutes with a 20% solution of piperidine in DMF. Thereafter, it was washed with DMF, isopropanol, water and methanol. Subsequently, the resin was distributed in equal portions in 30 reaction vessels, then 0.5 mmol of a carbonyl compound (a. paraformaldehyde, b. pivalaldehyde, c. benzaldehye, d. benzophenone and e. phenylpropionaldehyde) were added to in each case 6 of these vessels, whereafter to each 0.5 mmol of a maleimide (maleimide, N-methyl-, N-butyl-, N-cyclohexylmethyl-, N-phenyl- or N-benzyl-maleimide) was added such that each vessel contains a different pairing of carbonyl compound and maleimide. About 5 ml of a mixture of 150 ml of methanol and 8 ml of acetic acid were added to each vessel as the solvent and the batch was heated under reflux for 22 hours. After cooling the solvent was sucked off and the resin was washed in each case twice with dimethyl sulfoxide, isopropanol, water and isopropanol. The resin was then treated with in each case about 5 ml of a mixture of 40% trifluoroacetic acid, 50% dichloromethane, 5% water and 5% isopropanol and shaken for 2 hours. After filtration the 30 filtrate solutions were concentrated. 30 crude products were thus obtained as yellow oils. For mass spectroscopic and HPLC investigations about 0.5 mg of each oil was removed and taken up in […].

| Compound | Ki [1] [nM] | also measured |
| --- | --- | --- |
| C[C@H]1[C@@H]2C(=O)N(Cc3ccccc3)C(=O)[C@@H]2[C@H](c2ccc(C(=N)N)cc2)N1C (racemic) [4.A)a), (1RS,3SR,3aRS,6aSR)-4-(5-Benzyl-2,3-dimethyl-4,6-dioxo-octahydro-pyrrolo[3,4-c]pyrrol-1-yl)-benzimidamide hydrochloride] | 670 |  |
| N=C(N)c1ccc([C@@H]2[C@@H]3C(=O)N(Cc4ccc5c(c4)OCO5)C(=O)[C@@H]3[C@H]3CCCN32)cc1 (racemic) [4.A)g), (3aRS,4SR,8aRS,8bSR)-4-[2-(Benzo[1,3]dioxol-5-ylmethyl)-1,3-dioxo-decahydro-pyrrolo[3,4-a]pyrrolizin-4-yl]-benzimidamide hydrochloride] | 90 |  |
| N=C(N)c1ccc([C@@H]2[C@@H]3C(=O)N(CC4CCCCC4)C(=O)[C@@H]3[C@H]3CCCN32)cc1 (racemic) [7.A)g), (3aRS,4SR,8aRS,8bSR)-4-(2-Cyclohexylmethyl-1,3-dioxo-decahydro-pyrrolo[3,4-a]pyrrolizin-4-yl)-benzimidamide hydrochloride] | 350 |  |
| N=C(N)c1ccc([C@H]2[C@H]3C(=O)N(Cc4ccc5c(c4)OCO5)C(=O)[C@H]3[C@@H]3CSCN32)cc1 (racemic) [Example 7.A)i), (5RS,5aSR,8aRS,8bRS)-4-[7-(Benzo[1,3]dioxol-5-ylmethyl)-6,8-dioxo-octahydro-pyrrolo[3',4':3,4]pyrrolo[1,2-c]thiazol-5-yl]-benzimidamide hydrochloride] | 440 |  |
| CCCCN1C(=O)[C@@H]2[C@H](C1=O)[C@H]1CCCN1[C@@H]2c1ccc(NC(=N)N)cc1 (racemic) [Example 9, (3aRS,4SR,8aRS, 8bSR)-N-[4-(2-Butyl-1,3-dioxo-decahydro-pyrrolo[3,4-a]pyrrolizin-4-yl)-phenyl]-guanidinium nitrate] | 110 |  |
| N=C(N)c1ccc([C@@H]2N[C@](COCc3ccccc3)(C(=O)O)[C@@H]3C(=O)N(Cc4ccc([N+](=O)[O-])cc4)C(=O)[C@@H]32)cc1 (racemic) [Example 18, (1RS,3RS,3aSR,6aRS)-1-(benzyloxy-methyl)-3-(4-carbamimidoyl-phenyl)-5-(4-nitro-benzyl)-4,6-dioxo-octahydro-pyrrolo[3,4-c]pyrrole-1-carboxylic acid hydrochloride] |  | Ki [2]: 98 nM |
| N=C(N)c1ccc([C@@H]2N[C@](COCc3ccccc3)(C(=O)O)[C@@H]3C(=O)N(Cc4ccc(N)cc4)C(=O)[C@@H]32)cc1 (racemic) [Example 19, (1RS,3RS,3aSR,6aRS)-5-(4-amino-benzyl)-1-(benzyloxy-methyl)-3-(4-carbamimidoyl-phenyl)-4,6-dioxo-octahydro-pyrrolo[3,4-c]pyrrole-1-carboxylic acid hydrochloride] |  | Ki [2]: 76 nM |
| N=C(N)c1ccc([C@@H]2[C@@H]3C(=O)N(Cc4ccccc4)C(=O)[C@@H]3[C@H]3C[C@H](O)CN32)cc1 [7.A)o), (3aR,4S,7S,8aR,8bS)-4-(2-Benzyl-7-hydroxy-1,3-dioxo-decahydro-pyrrolo[3,4-a]pyrrolizin-4-yl)-benzimidamide hydrochloride] | 670 |  |
| N=C(N)NCCCC1(C(N)=O)NC(c2ccccc2)C2C(=O)N(c3ccccc3)C(=O)C21 (stereo not drawn) [Example 12 m), 3,5-diphenyl-1-(3-guanidino-propyl)-4,6-dioxo-octahydro-pyrrolo[3,4-c]pyrrole-1-carboxamide] |  | inhibitory activity in the thrombin test ([3]; among the named cycloadducts of Example 12): greatest inhibitory activity |
| CSCCC1(C(=O)O)NC(c2ccc(C(=N)N)cc2)C2C(=O)N(CC3CCCCC3)C(=O)C21 (stereo not drawn) [Example 13 n), 5-cyclohexylmethyl-1-(2-methylsulfanyl-ethyl)-3-(4-carbamimidoyl-phenyl)-4,6-dioxo-octahydro-pyrrolo[3,4-c]pyrrole-1-carboxylic acid] |  | inhibitory activity in the thrombin test ([3]; among the named cycloadducts of Example 13): greatest inhibitory activity |
| N=C(N)c1ccc(C2C3C(=O)N(c4ccccc4)C(=O)C3C(CO)(C(=O)O)N2CCC(N)=O)cc1 (stereo not drawn) [Example 14 p), 3-hydroxymethyl-5-phenyl-1-(4-carbamimidoyl-phenyl)-2-(2-carbamoyl-ethyl)-4,6-dioxo-octahydro-pyrrolo[3,4-c]pyrrole-3-carboxylic acid] |  | inhibitory activity (determined according to Example 12) ([3]; among the products of Example 14): highest inhibitory activity |
| N=C(N)c1ccc(C2C3C(=O)N(C(Cc4ccccc4)C(N)=O)C(=O)C3C3CCCN32)cc1 (stereo not drawn) [Example 15] |  | inhibitory activity in the thrombin test ([3]; among the 20 crude products of Example 15): highest inhibitory activity |

— patent US5686459A, “Dioxopyrrolo pyrrole derivatives” (Hoffmann-La Roche Inc., priority 1995, dated 1997)
